ChEMBL document CHEMBL6092126, “Inhibitors of Rickettsia prowazekii methionine aminopeptidase 1 identified from the Pandemic Response Box” (Bioorg Med Chem Lett, 2024)

Experiments:
[1] = Inhibition of Rickettsia prowazekii methionine aminopeptidase 1 using methionine-aminomethylcoumarin as substrate at 10 uM preincubated for 1 hrs followed by substrate addition and measured after 30 mins by fluorescence based plate reader analysis relative to control; settings: time 1.5 hrs
[2] = Inhibition of Rickettsia prowazekii methionine aminopeptidase 1 using methionine-aminomethylcoumarin as substrate preincubated for 1 hrs followed by substrate addition and measured after 30 mins by fluorescence based plate reader analysis

Compound	inhibition [1] [%]	IC50 [2] [µM]
CCCCCCC1c2ccc(O)cc2Oc2cc(O)ccc21	> 60	10
Cc1cc(-c2ccccc2)c(C(=O)C(=O)Nc2ccc(N3CCN(c4ncc(F)cn4)CC3)cc2)n1C [OLOROFIM]	> 60	4.2
O=[N+]([O-])/C(Br)=C/c1ccc(Br)o1	> 60	2.9
O=C(O)c1ccc(-n2nc(-c3ccccc3O)nc2-c2ccccc2O)cc1 [DEFERASIROX]	> 60	2.1
O=C1c2cccc3cccc(c23)C(=O)N1CC1CO1 (centres undefined)	> 60	4.8
CN(O)C(=O)c1cc2c(CN3CCC[C@H]3C(N)=O)cn(Cc3ccc(F)cc3)c2cn1	> 60	4.2
O=C(O)c1ccc(-c2ccccc2Cl)o1	–	2.4
O=C(CP(=O)(O)O)NCCc1cccc(Oc2ccccc2)c1	> 60	7
Cc1ccc(Oc2ccccc2-c2csc(N=C3NCCCN3)n2)c(C)c1 [ABAFUNGIN]	> 60	5.4
CONC(=N)c1ccc(-c2ccc(-c3ccc(C(=N)NOC)cc3)o2)cc1 [PAFURAMIDINE]	> 60	2.9
CN(C)CCCNC(=O)c1ccc(-c2cc(O)c3ncccc3c2)cc1	> 60	0.34
O=c1cc(Nc2ccc3ccccc3c2)[nH]c(=O)[nH]1	> 60	1.8
COc1ccc(C)cc1NC(=O)c1ccc(S(=O)(=O)N2CCCCC2)cc1	> 60	2.4
O=C(NCc1ccc(F)cc1)c1c(O)c2ncccc2[nH]c1=O	> 60	1.9
O=C(Nc1nnc(-c2ccc(Cl)cc2)o1)c1nc2ccccc2s1	> 60	5.5
C[C@@H](c1nc(-c2ccc(C#N)cc2)cs1)[C@](O)(Cn1cncn1)c1ccc(F)cc1F [RAVUCONAZOLE]	> 60	5.2
COc1cc(Cc2cnc(N)nc2N)cc(OC)c1OC [TRIMETHOPRIM]	> 60	5.1
Oc1cccc(C(Nc2nccs2)c2ccc3cccnc3c2O)c1 (centres undefined)	> 60	1.4
Fc1ccc(-n2cc(Cn3c(-c4cccc(F)c4)nc4ccccc43)nn2)cc1	> 60	4.1
Nc1nc(=O)[nH]cc1F [FLUCYTOSINE]	> 60	6.9
